One block for each substance: values may come before it.
Experiments:
[1] = biological target: PKC-βI (Homo sapiens, UniProt P05771); experiment: In vitro competition with anti-PKC-βI antibody, Protocol B, IMR-32 cells; format: binding; parameters: PRE 3 and PRE 4 in IMR-32 Neuroblastoma Cells: Protocol B; endogenous in cells; host or cells: IMR-32; conditions: for inhibition at 0.1 mg / remaining activity at 0.1 mg / Band Intensity / inhibition at 0.2 mg / remaining activity at 0.2 mg / inhibition at 0.3 mg / remaining activity at 0.3 mg: PKC-βI; for inhibition at 0.1 mg / inhibition at 0.2 mg / inhibition at 0.3 mg: Table 9; for remaining activity at 0.1 mg / remaining activity at 0.2 mg / remaining activity at 0.3 mg: Table 9, read-out: Relative Intensity (%); for Band Intensity: control band intensity 170.5, Table 9
PKC-βI, sequence (P05771 whole entry): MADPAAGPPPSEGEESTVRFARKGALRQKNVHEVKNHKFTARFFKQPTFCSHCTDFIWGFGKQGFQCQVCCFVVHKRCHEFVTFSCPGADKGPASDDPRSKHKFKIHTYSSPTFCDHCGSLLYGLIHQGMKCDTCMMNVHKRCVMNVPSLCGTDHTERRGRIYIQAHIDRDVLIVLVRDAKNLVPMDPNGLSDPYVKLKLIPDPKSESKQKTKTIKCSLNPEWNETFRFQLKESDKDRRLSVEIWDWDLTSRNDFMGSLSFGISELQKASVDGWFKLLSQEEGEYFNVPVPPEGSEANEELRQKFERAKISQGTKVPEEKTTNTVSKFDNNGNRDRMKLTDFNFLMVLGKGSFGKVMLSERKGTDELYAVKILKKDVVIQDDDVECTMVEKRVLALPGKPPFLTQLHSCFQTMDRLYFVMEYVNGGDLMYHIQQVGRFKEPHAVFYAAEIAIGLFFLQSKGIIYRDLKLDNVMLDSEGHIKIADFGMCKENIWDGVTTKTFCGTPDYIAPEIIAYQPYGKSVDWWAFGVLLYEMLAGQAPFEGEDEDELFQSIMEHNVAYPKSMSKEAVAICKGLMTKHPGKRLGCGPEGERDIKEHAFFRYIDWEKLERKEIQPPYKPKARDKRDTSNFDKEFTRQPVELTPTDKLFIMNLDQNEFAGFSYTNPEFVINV
Protocol: (§1) The ability of the peptides PRE 2 and PRE 3 (see Table 3) to interfere with the binding of a PKC-α-specific polyclonal antibody (Santa Cruz Biotechnology, Inc.) to PKC-α was determined using a modified version of the protocol outlined above in which the test peptide was added directly to the cell extract prior to electrophoresis at a concentration of either 5× or 15× the concentration of the protein applied to each well of the gel for the Western blots (20 μg).
Peptides PRE 3 and PRE 4 (see Table 3) were tested for their ability to interfere with the binding of isoform-specific polyclonal antibodies (Santa Cruz Biotechnology, Inc.) to PKC-α, PKC-βI or PKC-βII using the general protocol described in Example 3.

[2] = biological target: T1, PKC-α (Homo sapiens, UniProt P17252); experiment: In vitro competition with anti-PKC-α antibody on blotted cell lysate, Protocol A, IMR-32 cells; format: binding; parameters: subcellular localisation of endogenous PKC-α in IMR-32 cells; endogenous in cells; host or cells: IMR-32
Protocol: The ability of the peptides to interfere with the binding of a PKC-α-specific monoclonal antibody to PKC-α was determined using the following protocol.
Cell lysates from either IMR-32 (human neuroblastoma) cells or C6Cx43 cells (rat glioma transfected cells overexpressing connexin 43) were obtained using standard protocols and the proteins of the lysate were separated by SDS PAGE electrophoresis and electrotransferred onto a nitrocellulose membrane. […] A primary polyclonal antibody specific for PKC-α (Santa Cruz Biotechnology, Inc., CA) was then added (15 μg/ml) and the membrane incubated for a further 45 minutes. Finally, the primary antibody was detected with a secondary antibody conjugated to alkaline phosphatase using standard procedures. The intensity of the band corresponding to PKC-α was assessed by scanning and densitometry using the Gel-Pro software (Media Cybernetics) to obtain relative band intensities (average of 3 replicas). Control assays were conducted as described above except that blocking buffer without peptide was used.
The results are expressed as relative band intensity and as a percentage of the intensity of the corresponding band in the control assay (“Relative intensity (%)”). “% inhibition” relates to the percentage of the PKC-α band that is inaccessible to the antibody.

[3] = tested on: PKC-ε; experiment: In vitro competition with anti-PKC-ε antibody, Protocol B, IMR-32 cells; format: binding, human
Protocol: as §1
Peptides PRE 2, PRE 3 and PRE 4 (see Table 3) were tested for their ability to interfere with the binding of isoform-specific polyclonal antibodies (Santa Cruz Biotechnology, Inc.) to PKC-ε using the general protocol described in Example 3. Two bands, representing alternate splicing variants of PKC-ε, were identified on the Western blot using this anti-PKC-ε antibody.

[4] = biological target: T1, PKC-α; experiment: Kinase-Glo Luminescent Kinase Assay, substrate myelin basic protein; format: biochemical; conditions: for inhibition at 150 µM: PRE 4 150 μM; for inhibition at 300 µM: PRE 4 300 μM; for inhibition at 600 µM: PRE 4 600 μM
Protocol: The ability of peptide PRE 4 (see Table 3) to inhibit the activity of PKC-α was tested using increasing concentrations of PRE 4 and the Kinase-Glo™ Luminescent Kinase Assay (Promega, Cat # V6712/3/4) following the manufacturer's instructions. Briefly, the assay is based on the Luciferase luminescent reaction with ATP. The substrate was myelin basic protein (MBP, a classical substrate of the PKC family). ATP was added to the PKC-α reaction solution at a given concentration and the remaining ATP was measured by luminescence. Luminescence of blank solutions, ATP provided at the beginning of the reaction and PKC-α activity in the presence or absence of PRE 4 were measured.
Blanks are subtracted from all values.
ATP remaining in all reactions was subtracted from the ATP values at the start=relative enzyme activity (Ea).
The relative activities were all measured and the Ea in the presence of PRE 4 are reported relative to the Ea of PKC-α alone taken as 100. The difference between 100 and the % Ea of PKC-α exposed to PRE 4 represents the relative level of inhibition.

[5] = 75 μg peptide, IMR-32, Protocol A, Table 4
[6] = 300 μg peptide, IMR-32, Protocol A, Table 4

inhibition at 0.1 mg ([1]; 100 μg): 100% | remaining activity at 0.1 mg ([1]; 100 μg): 0% | Band Intensity ([1]; 100 μg): 0.0 | inhibition at 0.2 mg ([1]; 200 μg): 100% | remaining activity at 0.2 mg ([1]; 200 μg): 0% | Band Intensity ([1]; 200 μg): 0.0 | inhibition at 0.3 mg ([1]; 300 μg): 100% | remaining activity at 0.3 mg ([1]; 300 μg): 0% | Band Intensity ([1]; 300 μg): 0.0 | Band Intensity ([2]; 75 μg, IMR-32 Cells, Table 5): 0.889 | inhibition at 0.075 mg ([2]; 75 μg, IMR-32 Cells, Table 5): 0.7% | remaining activity at 0.075 mg ([2]; 75 μg, IMR-32 Cells, Table 5, read-out: Relative Intensity (%)): 99.3% | Band Intensity ([2]; 300 μg, IMR-32 Cells, Table 5): 0.922 | inhibition at 0.3 mg ([2]; 300 μg, IMR-32 Cells, Table 5): 0% | remaining activity at 0.3 mg ([2]; 300 μg, IMR-32 Cells, Table 5, read-out: Relative Intensity (%)): 103% | Band Intensity ([2]; 600 μg, IMR-32 Cells, Table 5): 0.888 | inhibition at 0.6 mg ([2]; 600 μg, IMR-32 Cells, Table 5): 0% | remaining activity at 0.6 mg ([2]; 600 μg, IMR-32 Cells, Table 5, read-out: Relative Intensity (%)): 99.2% | Band Intensity ([2]; 3.75 mg, IMR-32 Cells, Table 5): 0.600 | remaining activity at 3.75 mg ([2]; 3.75 mg, IMR-32 Cells, Table 5, read-out: Relative Intensity (%)): 102% | Band Intensity ([2]; 5.25 mg, IMR-32 Cells, Table 5): 0.603 | remaining activity at 5.25 mg ([2]; 5.25 mg, IMR-32 Cells, Table 5, read-out: Relative Intensity (%)): 102% | Band Intensity ([2]; 7.5 mg, IMR-32 Cells, Table 5): 0.609 | inhibition at 7.5 mg ([2]; 7.5 mg, IMR-32 Cells, Table 5): 0% | remaining activity at 7.5 mg ([2]; 7.5 mg, IMR-32 Cells, Table 5, read-out: Relative Intensity (%)): 103%
Substance: Ac-AKGIQEVKGGDAQNLIGISI-NH2 [PRE 3]
effect on antibody binding to PKC-α ([2]; Protocol A): did not show an effect on antibody binding | Band Intensity ([3]; 20 μg, PKC-ε Band 1, Table 10): 5.12 | Inhibition (%) ([3]; 20 μg, PKC-ε Band 1, Table 10): 99.0% | Relative Intensity (%) ([3]; 20 μg, PKC-ε Band 1, Table 10): 0.12% | Band Intensity ([3]; 20 μg, PKC-ε Band 2, Table 10): 0.0 | Inhibition (%) ([3]; 20 μg, PKC-ε Band 2, Table 10): 100.0% | Relative Intensity (%) ([3]; 20 μg, PKC-ε Band 2, Table 10): 0.0% | Band Intensity ([3]; 50 μg, PKC-ε Band 1, Table 10): 0.0 | Inhibition (%) ([3]; 50 μg, PKC-ε Band 1, Table 10): 100.0% | Relative Intensity (%) ([3]; 50 μg, PKC-ε Band 1, Table 10): 0.0% | Band Intensity ([3]; 50 μg, PKC-ε Band 2, Table 10): 0.0 | Inhibition (%) ([3]; 50 μg, PKC-ε Band 2, Table 10): 100.0% | Relative Intensity (%) ([3]; 50 μg, PKC-ε Band 2, Table 10): 0.0% | Band Intensity ([3]; 100 μg, PKC-ε Band 1, Table 10): 0.0 | Inhibition (%) ([3]; 100 μg, PKC-ε Band 1, Table 10): 100.0% | Relative Intensity (%) ([3]; 100 μg, PKC-ε Band 1, Table 10): 0.0% | Band Intensity ([3]; 100 μg, PKC-ε Band 2, Table 10): 0.0 | Inhibition (%) ([3]; 100 μg, PKC-ε Band 2, Table 10): 100.0% | Relative Intensity (%) ([3]; 100 μg, PKC-ε Band 2, Table 10): 0.0%

inhibition at 150 µM ([4]; Experiment 1): 6.15% | inhibition at 150 µM ([4]; Experiment 2): 28.9% | inhibition at 150 µM ([4]; Experiment 3): 40.1% | inhibition at 300 µM ([4]; Experiment 1): 9.76% | inhibition at 300 µM ([4]; Experiment 2): 40.7% | inhibition at 300 µM ([4]; Experiment 3): 35.5% | inhibition at 600 µM ([4]; Experiment 1): 16.4% | inhibition at 600 µM ([4]; Experiment 2): 53.5% | inhibition at 600 µM ([4]; Experiment 3): 41.6% | effect on antibody binding to PKC-βI [1]: some cross-reactivity | inhibition at 0.1 mg ([1]; 100 μg): 34% | remaining activity at 0.1 mg ([1]; 100 μg): 66% | Band Intensity ([1]; 100 μg): 112.5 | inhibition at 0.2 mg ([1]; 200 μg): 100% | remaining activity at 0.2 mg ([1]; 200 μg): 0% | Band Intensity ([1]; 200 μg): 0.0 | inhibition at 0.3 mg ([1]; 300 μg): 100% | remaining activity at 0.3 mg ([1]; 300 μg): 0% | Band Intensity ([1]; 300 μg): 0.0
Substance: Ac-KDAQNLIGISI-NH2 [PRE 4, Ac-KDAQNLIGISI-NH2]
effect on antibody binding to PKC-ε [3]: some cross-reactivity with PKC-ε | Band Intensity ([3]; 20 μg, PKC-ε Band 1, Table 10): 184.38 | Inhibition (%) ([3]; 20 μg, PKC-ε Band 1, Table 10): 42.9% | Relative Intensity (%) ([3]; 20 μg, PKC-ε Band 1, Table 10): 57.1% | Band Intensity ([3]; 20 μg, PKC-ε Band 2, Table 10): 152.66 | Inhibition (%) ([3]; 20 μg, PKC-ε Band 2, Table 10): 46.6% | Relative Intensity (%) ([3]; 20 μg, PKC-ε Band 2, Table 10): 53.33% | Band Intensity ([3]; 50 μg, PKC-ε Band 1, Table 10): 0.0 | Inhibition (%) ([3]; 50 μg, PKC-ε Band 1, Table 10): 100.0% | Relative Intensity (%) ([3]; 50 μg, PKC-ε Band 1, Table 10): 0.0% | Band Intensity ([3]; 50 μg, PKC-ε Band 2, Table 10): 0.0 | Inhibition (%) ([3]; 50 μg, PKC-ε Band 2, Table 10): 100.0% | Relative Intensity (%) ([3]; 50 μg, PKC-ε Band 2, Table 10): 0.0% | Band Intensity ([3]; 100 μg, PKC-ε Band 1, Table 10): 0.0 | Inhibition (%) ([3]; 100 μg, PKC-ε Band 1, Table 10): 100.0% | Relative Intensity (%) ([3]; 100 μg, PKC-ε Band 1, Table 10): 0.0% | Band Intensity ([3]; 100 μg, PKC-ε Band 2, Table 10): 0.0 | Inhibition (%) ([3]; 100 μg, PKC-ε Band 2, Table 10): 100.0% | Relative Intensity (%) ([3]; 100 μg, PKC-ε Band 2, Table 10): 0.0%

Band Intensity [2, 5]: 1.040 | Inhibition (%) [2, 5]: 50.2% | Relative Intensity (%) [2, 5]: 49.8% | Band Intensity [2, 6]: 0.771 | Inhibition (%) [2, 6]: 63.1% | Relative Intensity (%) [2, 6]: 36.9% | effect on antibody binding to PKC-α ([2]; Protocol A): mask the antigenic site of PKC-α
Substance: RRKKGGKDFVVKR [PRE 1]

— patent US20100041597A1, “PEPTIDES TARGETED TO PROTEIN KINASE C ISOFORMS AND USES THEREOF” (priority 2005, published 2010)
